Data published in patent US9884063B2, “Amido-substituted azole compounds” (Bayer Pharma Aktiengesellschaft, priority 2014, dated 2018).

How the values were obtained:
[1] = test system: wildtype Wnt signaling cascade; test: HEK293 TOP Assay (Super TopFlash luciferase reporter, Wnt-3a stimulated); assay type: cell-based; conditions: Homo sapiens, HEK293, 16 h, HEK293 TOP reporter cell line, Wnt-3a at EC50, 16 hours incubation, compound dilution series 50 μM to 15 nM
Method in brief: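 HEK293 cells stably carrying Super TopFlash (TOP) or FOP reporter, stimulated with recombinant human Wnt-3a (2500–5 ng/ml, two-fold steps). Both lines incubated in parallel with compound from 50 μM to 15 nM (3.16-fold) in CAFTY buffer pH 7.4 with 2 mM Ca2+ and 0.01% BSA; selectivity judged TOP vs FOP.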

TNKS1 = biological target: T1, TNKS1 (Homo sapiens, UniProt O95271); test: Modified TNKS1 Assay 2 (auto-parsylation, [3H]-NAD+ SPA); assay type: biochemical; conditions: 6 nM TNKS1, 96 well
T1 sequence (O95271 1-1327): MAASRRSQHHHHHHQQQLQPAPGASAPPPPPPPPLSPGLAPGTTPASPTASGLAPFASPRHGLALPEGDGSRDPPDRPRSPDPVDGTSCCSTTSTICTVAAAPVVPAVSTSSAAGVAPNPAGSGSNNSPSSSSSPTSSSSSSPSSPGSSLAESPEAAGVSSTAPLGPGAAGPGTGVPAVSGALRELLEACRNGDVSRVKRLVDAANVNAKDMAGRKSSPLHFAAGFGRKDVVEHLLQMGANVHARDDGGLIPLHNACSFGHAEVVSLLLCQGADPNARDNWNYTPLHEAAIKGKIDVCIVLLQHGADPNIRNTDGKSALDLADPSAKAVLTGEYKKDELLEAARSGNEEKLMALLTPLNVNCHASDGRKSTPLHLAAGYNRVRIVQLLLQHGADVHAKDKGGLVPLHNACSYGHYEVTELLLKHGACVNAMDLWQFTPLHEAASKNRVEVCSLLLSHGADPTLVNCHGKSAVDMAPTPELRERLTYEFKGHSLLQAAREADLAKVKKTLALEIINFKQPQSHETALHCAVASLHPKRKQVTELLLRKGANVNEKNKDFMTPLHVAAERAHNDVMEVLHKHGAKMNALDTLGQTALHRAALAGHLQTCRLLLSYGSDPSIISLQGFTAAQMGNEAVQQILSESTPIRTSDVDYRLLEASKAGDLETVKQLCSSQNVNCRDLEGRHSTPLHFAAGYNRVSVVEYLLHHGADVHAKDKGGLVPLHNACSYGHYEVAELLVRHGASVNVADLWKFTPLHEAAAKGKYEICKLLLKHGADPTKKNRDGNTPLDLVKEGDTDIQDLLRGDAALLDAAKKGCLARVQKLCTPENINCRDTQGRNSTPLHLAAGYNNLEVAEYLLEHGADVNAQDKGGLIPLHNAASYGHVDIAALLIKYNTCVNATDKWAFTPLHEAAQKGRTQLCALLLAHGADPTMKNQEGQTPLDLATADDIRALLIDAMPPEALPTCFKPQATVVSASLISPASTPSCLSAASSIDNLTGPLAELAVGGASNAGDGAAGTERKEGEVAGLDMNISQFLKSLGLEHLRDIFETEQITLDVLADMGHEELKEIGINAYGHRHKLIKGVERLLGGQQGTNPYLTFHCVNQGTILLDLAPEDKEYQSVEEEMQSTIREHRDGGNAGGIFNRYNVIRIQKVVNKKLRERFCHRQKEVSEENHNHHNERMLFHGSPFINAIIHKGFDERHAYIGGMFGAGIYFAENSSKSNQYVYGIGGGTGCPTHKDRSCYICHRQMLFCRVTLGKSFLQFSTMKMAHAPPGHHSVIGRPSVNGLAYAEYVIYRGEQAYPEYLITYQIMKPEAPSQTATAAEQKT
Experimental: The potency of selected compounds according to the invention was assessed applying an modified in vitro inhibition assay. Here, the TNKS1 catalyzed NAD^+-dependent ribosylation of the enzyme itself (auto-parsylation) was detected using [^3H]-NAD^+ as substrate and applying the scintillation proximity assay (SPA) method to detect tritium-labeled, parsylated TNKS1. The intensity of the readout signal is proportional to the incorporated [^3H]-NAD^+. Inhibition of TNKS1 leads to a decreased incorporation of [^3H]-NAD^+ and consequently to a lower readout signal intensity. The concentration of a test compound which inhibits the enzyme activity by 50% (corresponds to half of the normed readout signal intensity) is reported as IC50.
The assay was conducted in a 96 well MTP format with the identical TNKS1 enzyme sample and NAD^+ sample as in the histone ribosylation assay with the following modifications: TNKS1 enzyme sample was diluted with a modified assay buffer (50 mM MES pH 7.0, 1 mM DTT, 0.01% Triton X-100) to a final concentration of 6 nM TNKS1 and 10×NAD^+ solution was diluted with the modified assay buffer (s. above) to a final 0.445×NAD^+ solution doped with 100 Bq/ul [^3H]-NAD^+[Catalog #NET443H050UC, Perkin Elmer, Waltham, Mass., USA]. Substrate solution (10 ul) was incubated with different test compound concentrations (2.5 ul in 10% DMSO in modified assay buffer) or control (2.5 ul 10% DMSO in modified assay buffer only) and enzyme (10 ul) over night at room temperature. Incorporated tritium was measured after addition of 50 ul SPA beads (1 mg/ml) [Catalog #RPNQ0095 20 mg/ml, Perkin Elmer, Waltham, Mass., USA; diluted 1:10 with Dulbecco's phosphate buffered saline, PBS Catalog #D8537, Sigma-Aldrich, Steinheim, Germany] and detection of the photon emission with a beta count plate reader [Wallac MicroBeta®, Perkin Elmer, Waltham, Mass., USA].

Row | Structure (SMILES) | IC50 [1] | IC50 (TNKS1)
1 | CC(C)(CNC(=O)c1[nH]cnc1C(=O)Nc1ccc(NC(=O)c2ccccc2Cl)cc1)N1CCCCC1 [Example 165, N^4-{4-[(2-chlorobenzoyl)amino]phenyl}-N^5-[2-methyl-2-(piperidin-1-yl)propyl]-1H-imidazole-4,5-dicarboxamide] | 0.29 µM | 0.03 µM
2 | O=C(Nc1ccc(NC(=O)c2nc[nH]c2C(=O)NCCF)cc1)c1ccccc1Cl [Example 166, N^4-{4-[(2-chlorobenzoyl)amino]phenyl}-N^5-(2-fluoroethyl)-1H-imidazole-4,5-dicarboxamide] | 0.53 µM | 0.24 µM
3 | CC1CCCCN1CCNC(=O)c1[nH]cnc1C(=O)Nc1ccc(NC(=O)c2ccc(F)cc2)cc1 (centres unmarked) [Example 169, N^4-{4-[(4-fluorobenzoyl)amino]phenyl}-N^5-[2-(2-methylpiperidin-1-yl)ethyl]-1H-imidazole-4,5-dicarboxamide] | 0.8 µM | 0.09 µM
4 | CC(C)(CN1CCCCC1)NC(=O)c1[nH]cnc1C(=O)Nc1ccc(NC(=O)c2ccccc2Cl)cc1 [Example 171, N^4-{4-[(2-chlorobenzoyl)amino]phenyl}-N^5-[2-methyl-1-(piperidin-1-yl)propan-2-yl]-1H-imidazole-4,5-dicarboxamide] | 0.67 µM | 0.2 µM
5 | O=C(Nc1ccc(NC(=O)c2nc[nH]c2C(=O)NCCF)cc1)c1ccc(F)cc1Cl [Example 173, N^4-{4-[(2-chloro-4-fluorobenzoyl)amino]phenyl}-N^5-(2-fluoroethyl)-1H-imidazole-4,5-dicarboxamide] | 0.27 µM | 0.03 µM
6 | O=C(Nc1ccc(NC(=O)c2nc[nH]c2C(=O)NCCN2CCCC2)cc1)c1ccc(F)cc1 [Example 176, N^4-{4-[(4-fluorobenzoyl)amino]phenyl}-N^5-[2-(pyrrolidin-1-yl)ethyl]-1H-imidazole-4,5-dicarboxamide] | 0.34 µM | 0.05 µM
7 | CC(C)(CN1CCOCC1)NC(=O)c1[nH]cnc1C(=O)Nc1ccc(NC(=O)c2ccc(F)cc2)cc1 [Example 180, N^4-{4-[(4-fluorobenzoyl)amino]phenyl}-N^5-[2-methyl-1-(morpholin-4-yl)propan-2-yl]-1H-imidazole-4,5-dicarboxamide] | 5.35 µM | 4 µM
8 | CC(CNC(=O)c1[nH]cnc1C(=O)Nc1ccc(NC(=O)c2ccccc2Cl)cc1)N1CCCCC1 (centres unmarked) [Example 182, N^4-{4-[(2-chlorobenzoyl)amino]phenyl}-N^5-[2-(piperidin-1-yl)propyl]-1H-imidazole-4,5-dicarboxamide] | 0.64 µM | 0.01 µM
9 | CC(C)(CN1CCCCC1)NC(=O)c1[nH]cnc1C(=O)Nc1ccc(NC(=O)c2ccc(F)cc2Cl)cc1 [Example 184, N^4-{4-[(2-chloro-4-fluorobenzoyl)amino]phenyl}-N^5-[2-methyl-1-(piperidin-1-yl)propan-2-yl]-1H-imidazole-4,5-dicarboxamide] | 0.82 µM | 0.03 µM
10 | CN1CCN(C(C)(C)CNC(=O)c2[nH]cnc2C(=O)Nc2ccc(NC(=O)c3ccc(F)cc3Cl)cc2)CC1 [Example 187, N^4-{4-[(2-chloro-4-fluorobenzoyl)amino]phenyl}-N^5-[2-methyl-2-(4-methylpiperazin-1-yl)propyl]-1H-imidazole-4,5-dicarboxamide] | 0.35 µM | 0.05 µM
11 | O=C(Nc1ccc(NC(=O)c2nc[nH]c2C(=O)NCCCCN2CCCCC2)cc1)c1ccccc1Cl [Example 189, N^4-{4-[(2-chlorobenzoyl)amino]phenyl}-N^5-[4-(piperidin-1-yl)butyl]-1H-imidazole-4,5-dicarboxamide] | 0.89 µM | 0.22 µM
12 | O=C(Nc1ccc(NC(=O)c2nc[nH]c2C(=O)NCCN2CCC2)cc1)c1ccc(F)cc1 [Example 199, N^5-[2-(azetidin-1-yl)ethyl]-N^4-{4-[(4-fluorobenzoyl)amino]phenyl}-1H-imidazole-4,5-dicarboxamide] | 1.03 µM | 0.06 µM
13 | O=C(Nc1ccc(NC(=O)c2nc[nH]c2C(=O)NCCCN2CCOCC2)cc1)c1ccccc1Cl [Example 200, N^4-{4-[(2-chlorobenzoyl)amino]phenyl}-N^5-[3-(morpholin-4-yl)propyl]-1H-imidazole-4,5-dicarboxamide] | 0.87 µM | 0.35 µM

The next lines start with the values.

Row | IC50 [1] | IC50 (TNKS1) | Structure (SMILES)
14 | 2.1 µM | 4.1 µM | O=C(Nc1ccc(NC(=O)c2nc[nH]c2C(=O)NCCCN2CCOCC2)cc1)c1ccc(F)cc1 [Example 206, N^4-{4-[(4-fluorobenzoyl)amino]phenyl}-N^5-[3-(morpholin-4-yl)propyl]-1H-imidazole-4,5-dicarboxamide]
15 | 0.71 µM | 0.11 µM | CC(C)(CN1CCOCC1)NC(=O)c1[nH]cnc1C(=O)Nc1ccc(NC(=O)c2ccc(F)cc2Cl)cc1 [Example 207, N^4-{4-[(2-chloro-4-fluorobenzoyl)amino]phenyl}-N^5-[2-methyl-1-(morpholin-4-yl)propan-2-yl]-1H-imidazole-4,5-dicarboxamide]
16 | 0.03 µM | 0.003 µM | CC1CCCN(CCNC(=O)c2[nH]cnc2C(=O)Nc2ccc(NC(=O)c3ccc(F)cc3Cl)cc2)C1 (centres unmarked) [Example 208, N^4-{4-[(2-chloro-4-fluorobenzoyl)amino]phenyl}-N^5-[2-(3-methylpiperidin-1-yl)ethyl]-1H-imidazole-4,5-dicarboxamide]
17 | 0.85 µM | 0.4 µM | CC(C)(CNC(=O)c1[nH]cnc1C(=O)Nc1ccc(NC(=O)c2ccc(F)cc2)cc1)N1CCCCC1 [Example 209, N^4-{4-[(4-fluorobenzoyl)amino]phenyl}-N^5-[2-methyl-2-(piperidin-1-yl)propyl]-1H-imidazole-4,5-dicarboxamide]
18 | 0.02 µM | 0.007 µM | O=C(Nc1ccc(NC(=O)c2nc[nH]c2C(=O)NCCN2CCCCC2)cc1)c1ccc(F)cc1Br [Example 216, N^4-{4-[(2-bromo-4-fluorobenzoyl)amino]phenyl}-N^5-[2-(piperidin-1-yl)ethyl]-1H-imidazole-4,5-dicarboxamide]
19 | 0.12 µM | 0.01 µM | CN(C)CCNC(=O)c1[nH]cnc1C(=O)Nc1ccc(NC(=O)c2ccc(F)cc2Br)cc1 [Example 217, N^4-{4-[(2-bromo-4-fluorobenzoyl)amino]phenyl}-N^5-[2-(dimethylamino)ethyl]-1H-imidazole-4,5-dicarboxamide]
